Tests used:
[1] = system: H2981 human lung adenocarcinoma cell line; experiment: In vitro cytotoxicity assay, incorporation of [^3H] thymidine into DNA; assay type: cell-based; details: H2981 cells, non-conjugate treated, doxorubicin instead of PEG-AC-Dox (Figure 3)
[2] = in mice; cited from earlier work
[3] = Toxicity in nude mice (maximum tolerated dose), single intravenous injection
[4] = biological target: bL (Enterobacter cloacae, UniProt P05364); assay type: biochemical; details: 3-4 independently run experiments
bL, sequence (P05364 21-381): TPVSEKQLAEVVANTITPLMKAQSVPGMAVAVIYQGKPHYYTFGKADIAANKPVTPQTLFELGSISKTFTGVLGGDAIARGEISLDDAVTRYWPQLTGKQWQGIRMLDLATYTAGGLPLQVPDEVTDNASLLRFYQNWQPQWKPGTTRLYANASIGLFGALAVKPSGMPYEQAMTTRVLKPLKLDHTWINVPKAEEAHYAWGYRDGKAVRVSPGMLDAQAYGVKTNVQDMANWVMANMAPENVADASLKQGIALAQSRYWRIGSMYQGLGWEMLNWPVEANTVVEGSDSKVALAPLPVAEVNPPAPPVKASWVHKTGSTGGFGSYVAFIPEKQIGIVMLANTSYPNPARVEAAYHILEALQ

Row | SMILES | IC50 [1] | initial half life [2] | maximum tolerated dose ([3]; nude mice, single intravenous injection, dose giving < 20% weight loss, no deaths) | MTD ([3]; nude, mouse, in vivo, iv) | Vmax ([4]; hydrolysis by bL in phosphate buffered saline containing bovine serum albumin) | Km ([4]; hydrolysis by bL) | kcat ([4]; hydrolysis by bL)
1 | COc1cccc2c1C(=O)c1c(O)c3c(c(O)c1C2=O)C[C@@](O)(C(=O)CO)C[C@@H]3O[C@H]1C[C@H](N)[C@H](O)[C@H](C)O1 [doxorubicin] | 0.1 to 0.2 µM | 2 min | 13.8 µmol/kg body weight | 8 mg/kg | – | – | –
2 | COc1cccc2c1C(=O)c1c(O)c3c(c(O)c1C2=O)C[C@@](O)(C(=O)CO)C[C@@H]3O[C@H]1C[C@H](NC(=O)OCC2=C(C(=O)O)N3C(=O)[C@@H](NC(=O)Cc4ccccc4)[C@H]3SC2)[C@H](O)[C@H](C)O1 [C-Dox, 7-phenylacetylcephalosporin doxorubicin] | – | – | – | – | 400 ± 96 µmol/mim /mg | 46 ± 6 µM | 280 ± 67 s⁻¹

Source: patent EP0745390A2, “Polymeric prodrugs for beta-lactamase and uses thereof” (priority 1995, dated 1996)
